These are literature values, as cited in patent US20210346549A1, “Non-Contact Sanitizing Products and Elements” (Segan Industries, Inc., priority 2020, published 2021).

For data set [1], the system named is sporicidal, bactericidal, virulcide, and fungicidal. The following applies: low concentrations.
The conditions of data set [2]: vaccine content versus toxic quantity.
The next data set deals with bacterial spores. The conditions noted are these: gas-aerosol concentration of 15 to 20 mg/m3, relative humidity of about 80%.
The test system of another data set is vegetative bacteria. The following applies: gas-aerosol concentration of 15 to 20 mg/m3, relative humidity of about 80%.
The test system of a further data set is coronavirus 229E. The following applies: 1-minute contact time; free chlorine concentration of 1,000 ppm and 5,000 ppm.

Regarding `CC(=O)OO` [Peracetic acid], the “concentration at which sporicidal, bactericidal, virulcide, and fungicidal” value in data set [1] is reported as under 0.3%.

In the case of `C=O` [formaldehyde], the “quantity present in vaccines lower than that necessary to induce toxicity in experimental animals” value in data set [2] is reported as “at least 600 fold”.

As for `O=CCCCC=O` [glutaraldehyde], the decimal reduction time result is given as “less than 45 min” in the data set with bacterial spores and “less than 5 min” in the data set with vegetative bacteria.

For `OCl` [sodium hypochlorite], the “virucidal efficacy against coronavirus 229E” value in the data set on coronavirus 229E is listed as “effective”.
